Assay: thallium-flux assay: The thallium flux assay is an in vitro method of measuring conductance through a potassium ion channel. Potassium channels are also permeable to thallium ions. The modulation of a K+ channel will thus increase or decrease thallium ion flow through the channel and thus, alter the observed fluorescence of a thallium-specific indicator dye.Stably transfected T-Rex-HEK-293-AnKir1 cells were cultured overnight in 384-well plates in media containing DMEM, 10% dialyzed FBS, and 1 μg/mL tetracycline to induce channel expression. The next day the cell culture medium was replaced with a dye-loading solution containing assay buffer (Hanks Balanced Salt Solution with 20 mM HEPES, pH 7.3), 0.01% (w/v) Pluronic F-127 (Life Technologies, Carlsbad, Calif.), and 1.2 μM of the thallium-sensitive dye Thallos-AM (TEFlabs, Austin, Tex.). After 1 hr incubation at room temperature, the dye-loading solution was washed from the plates and replaced with 20 μL/well of assay buffer. The plates were transferred to a Hamamatsu Functional Drug Screening System 6000 (FDSS6000; Hamamatsu, Tokyo, Japan), where 20 μL/well of each of the test compounds in assay buffer was added and allowed to incubate with the cells for 20 min. […]

**Q.** With `O=C(Cn1nc(C(F)(F)F)c2c1CCCC2)N1CCc2ccccc2C1` as the molecule, how does the IC50 read?
**A.** Its IC50 is 15 µM.

— ChEMBL document CHEMBL5729670, “Method for controlling hematophagous or sap-feeding arthropods” (2023)
